One series deals with MCF-7. Kind of series: MTT cell proliferation assay, MCF-7. The note with it: Homo sapiens, MCF7. It counts as cell-based. The method, then:
Cells were grown at 37° C. in a 5% CO2 incubator. […] MTT was then added (5 mg/ml), and after 2 h of incubation, the plates were centrifuged. The supernatant was removed; DMSO was added, and the absorbance was read at 540 nm with a BioTek 96-well plate reader.
Background: Tetrazolium assays rely on reduction of a dye to a coloured formazan, in cell work by metabolically active cells.

Series [1] is described as follows: Plasma concentration after ip dosing. Format: in vivo, mice. The following applies: 1 hour after the daily dose, 4 mg/kg/day ip.
The next series addresses CYP3A4 (Δ3-22) (Homo sapiens, UniProt P08684). Kind of series: Spectral binding to soluble truncated CYP3A4. The note with it: soluble truncated CYP3A4Δ3-22; read-out: spectral dissociation constant (Ks).
For series [2], the system named is MCF-7 cells. Description: JC-1 mitochondrial membrane potential staining, MCF-7. The following applies: HBB 20 μM 4 hours, (±)-14,15-EET 1 μM. It counts as cell-based, human. The method, then: (§1) Cells were grown in chamber slides at 37° C. with 5% CO2 and treated with DMSO or HBB for 4 hours before JC-1 dye was added for the MCF-7 or MDA-MB-231 cell line. […] Images of red fluorescence (590 nm) and green fluorescence (530 nm) were acquired using an Olympus 1X70 microscope fitted with an Olympus DP70 digital camera (Olympus, Tokyo, Japan).

Series [3] has as its system MCF-7 cells. Kind of series: Cellular ATP by luminescent assay. Format: cell-based, human. The method, then:
Cells were seeded in 96-well tissue culture plate in 100 μL medium per well. After treatment with either vehicle or testing compound for an appropriate length of time, 50 μL mammalian cell lysis solution was added to each well and the plate was shaken for 5 minutes on an orbital shaker. To each well, 50 μL luminescent substrate and luciferase solution were then added. After incubation in the dark for 10 minutes, the luminescence measured. Cellular ATP levels were then calculated against a standard curve generated with ATP standards of known concentration.

The subject of series [4] is MDA-MB-231 cells. Kind of series: Measurement of OCR and ECAR, MDA-MB-231. Format: cell-based, human. The following applies: t-AUCB 2.5, 5 μM, HBB 20, 40 μM. How it is done: Cells were maintained in growth medium consisting of 10% FBS at 37° C. with 5% CO2 and seeded at 100,000 cells per well in XF24-well cell culture microplates (Seahorse Bioscience, North Billirica, Mass.). Concentrated stocks of HBB were prepared in DMSO. HBB was diluted to 10× working concentration in XF assay medium (a non-buffered medium including 2 mM L-glutamine but no sodium bicarbonate (buffering agent), glucose, or sodium pyruvate). Assays were performed in the XF Extracellular Flux Analyzer (Seahorse Bioscience that measures uptake and excretion of metabolic end products in real time). Oxygen consumption rate (OCR) and extracellular acidification rate (ECAR) were measured using an XF Assay Kit. OCR is reported in pmoles/minute and ECAR in mpH/minute. Before analysis, the cells were switched from culture medium to XF assay medium. After baseline measurements, 75 μl of HBB prepared in assay medium was injected into each well to reach final working concentrations. After addition of HBB, OCR and ECAR were measured at 18-minute intervals. […] There were 6 replicates for the studies of the 3-18 and 4-14 cell lines.

Series [5] concerns MDA-MB-231 cells. Kind of series: JC-1 mitochondrial membrane potential staining, MDA-MB-231. Format: cell-based, human. The following applies: HBB 20 μM 4 hours, (±)-14,15-EET 1 μM. How it is done: as §1
In a further series the test system is MCF-10A. Kind of series: Cell growth inhibition, MCF-10A non-transformed breast cell line. It counts as cell-based. The following applies: Homo sapiens, ER−[PR−].
For a further series, the system named is T47D. Description: Measurement of OCR and ECAR, T47D. Format: cell-based, human. The note with it: 20 and 40 μM. The method, then: Cells were maintained in growth medium consisting of 10% FBS at 37° C. with 5% CO2 and seeded at 100,000 cells per well in XF24-well cell culture microplates (Seahorse Bioscience, North Billirica, Mass.). Concentrated stocks of HBB were prepared in DMSO. HBB was diluted to 10× working concentration in XF assay medium (a non-buffered medium including 2 mM L-glutamine but no sodium bicarbonate (buffering agent), glucose, or sodium pyruvate). Assays were performed in the XF Extracellular Flux Analyzer (Seahorse Bioscience that measures uptake and excretion of metabolic end products in real time). Oxygen consumption rate (OCR) and extracellular acidification rate (ECAR) were measured using an XF Assay Kit. OCR is reported in pmoles/minute and ECAR in mpH/minute. Before analysis, the cells were switched from culture medium to XF assay medium. After baseline measurements, 75 μl of HBB prepared in assay medium was injected into each well to reach final working concentrations. After addition of HBB, OCR and ECAR were measured at 18-minute intervals. There were 5 replicates was performed for each data point for MCF-7, MDA-MB-231, T47D and MDA-MB-435 cell lines. There were 6 replicates for the studies of the 3-18 and 4-14 cell lines.

pIC50, pKd: −log10 of the molar value. Where two headings read alike, the source gives them in different places.

Here are results for one molecule from US20180177749A1, “USE OF CYP EXPRESSION TO DIRECT THERAPEUTIC INTERVENTION IN CANCER” (REGENTS OF THE UNIVERSITY OF MINNESOTA, priority 2016, published 2018).

CYP3A4 (Δ3-22), sequence (P08684 with tags, fused parts or gaps): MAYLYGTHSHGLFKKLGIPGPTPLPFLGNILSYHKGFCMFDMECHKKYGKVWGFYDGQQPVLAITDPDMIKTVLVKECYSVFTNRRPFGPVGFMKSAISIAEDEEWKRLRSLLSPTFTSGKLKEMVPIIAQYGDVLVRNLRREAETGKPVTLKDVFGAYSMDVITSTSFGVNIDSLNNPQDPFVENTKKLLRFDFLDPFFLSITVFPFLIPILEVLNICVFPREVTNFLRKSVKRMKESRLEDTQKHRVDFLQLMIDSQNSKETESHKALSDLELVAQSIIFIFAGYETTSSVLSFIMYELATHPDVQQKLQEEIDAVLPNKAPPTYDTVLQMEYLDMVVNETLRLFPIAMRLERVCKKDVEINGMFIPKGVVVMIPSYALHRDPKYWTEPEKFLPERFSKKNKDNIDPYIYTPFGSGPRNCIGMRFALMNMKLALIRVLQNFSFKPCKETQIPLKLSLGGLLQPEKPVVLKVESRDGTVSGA

Broadly, the pIC50 is the IC50 on a negative log10 scale, so that one unit is a factor of ten. For `CCCCCCNC(=N)NC(=N)NCc1ccccc1` [HBB, N1-hexyl-N5-benzyl-biguanide], the negative logarithm of the IC50 (pIC50) in the series with MCF-7 (MCF-7, ER+[PR+]HER2−, read-out: IC50) is 4.70; with MCF-7 (read-out: IC50 MCF-7), 4.70; in the series with MCF-10A, 4.69. Also, in series [1], the plasma concentration worked out at 530 nM. On CYP3A4 (Δ3-22), the pKd is 3.79. In addition, the “mitochondrial membrane potential (ΔΨm), JC-1” value in the series with MCF-7 cells [2] and in the series on MDA-MB-231 cells [5] was “caused mitochondrial depolarization” throughout. The molecule further yielded an ATP depletion in the series on MCF-7 cells [3] (6 hours) of 30%. Moreover, the “total cellular ATP levels” value in the series with MCF-7 cells [3] (6 hours of treatment, metformin 5 mM) is given as “reduced”. Besides, the “extracellular acidification rate (ECAR)” value in the series on MDA-MB-231 cells [4] is on record as “least inhibition of ECAR”. For the same molecule, the “oxygen consumption rate (OCR)” value with MDA-MB-231 cells [4] was “significant vs. vehicle”. The “reduction of OCR and ECAR” value in the series with T47D was “significant vs. vehicle”.
